Values joined by “and” are separate entries in the source; they are usually repeats but may differ in a detail not shown here. Identical values can stand only once.

Consider twelve molecules from paper PMC12527922, “Cocaine chemogenetics blunts drug-seeking by synthetic physiology” (Nature, 2025).

For assay [1], the target named is coca-5HT3 (α7(L141G,G175K,Y210F,Y217F)–5HT3) (Homo sapiens, UniProt P36544, G175K/L141G/Y210F/Y217F). The assay can be described thus: Membrane potential assay, coca-5HT3 in HEK293. The conditions noted are these: for Max normalized Response / Response: coca-5HT3; for Max normalized Response: ED Fig 3b; for activation of coca-5HT3: membrane potential assay dose response.
Chain of coca-5HT3 (α7(L141G,G175K,Y210F,Y217F)–5HT3) (P36544 23-224 L141G/G175K/Y210F/Y217F): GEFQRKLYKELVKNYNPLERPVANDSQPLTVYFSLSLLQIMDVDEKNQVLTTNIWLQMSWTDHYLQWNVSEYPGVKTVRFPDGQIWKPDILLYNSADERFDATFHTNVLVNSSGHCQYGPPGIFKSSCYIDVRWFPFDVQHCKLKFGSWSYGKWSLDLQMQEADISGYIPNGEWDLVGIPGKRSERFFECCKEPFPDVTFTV
Chain of coca-5HT3 (α7(L141G,G175K,Y210F,Y217F)–5HT3) (P23979 242-489, further chain): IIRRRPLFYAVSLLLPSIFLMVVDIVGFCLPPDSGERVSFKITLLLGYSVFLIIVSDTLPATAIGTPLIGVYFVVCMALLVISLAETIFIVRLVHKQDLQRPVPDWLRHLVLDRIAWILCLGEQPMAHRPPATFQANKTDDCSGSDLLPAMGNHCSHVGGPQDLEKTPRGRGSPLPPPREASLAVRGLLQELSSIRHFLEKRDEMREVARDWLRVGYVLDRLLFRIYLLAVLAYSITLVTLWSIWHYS

Another assay has as its target T1, unmodified α7–5HT3 (UniProt P23979+P36544, M226I/T225I).
T1 construct: expressed in transfected cells; host or cells: HEK293 (ATCC CRL-1573), pcDNA3.1
The assay can be described thus: Membrane potential assay, unmodified α7–5HT3. The class given is cell-based, human α7 nAChR LBD, mouse 5HT3 IPD.

The mark [2] stands for this setting: coca5HT3, [Nicotine] 1.37037 uM.
Setting [3] is: coca5HT3, [Nicotine] 4.11111 uM.
The mark [4] stands for this setting: coca5HT3, [Nicotine] 12.3333 uM.
Where [5] appears, read: a75HT3, [Nicotine] 0.0457247 uM.

T1 sequence (P36544+P23979 fused P36544:T225I/P36544:M226I): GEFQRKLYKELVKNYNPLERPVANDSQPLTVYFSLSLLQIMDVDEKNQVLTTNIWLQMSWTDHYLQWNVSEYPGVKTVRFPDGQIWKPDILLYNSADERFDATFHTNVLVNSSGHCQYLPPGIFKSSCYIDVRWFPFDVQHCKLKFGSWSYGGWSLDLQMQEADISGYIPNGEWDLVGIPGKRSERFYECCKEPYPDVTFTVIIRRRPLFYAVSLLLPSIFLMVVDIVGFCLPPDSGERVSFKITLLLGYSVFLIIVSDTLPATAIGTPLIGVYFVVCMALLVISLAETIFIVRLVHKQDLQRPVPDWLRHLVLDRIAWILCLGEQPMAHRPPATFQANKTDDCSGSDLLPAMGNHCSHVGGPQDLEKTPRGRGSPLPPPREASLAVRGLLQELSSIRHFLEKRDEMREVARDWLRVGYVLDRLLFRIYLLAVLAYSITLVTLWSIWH

For the molecule `CN1[C@@H]2CC[C@H]1C[C@@H](OC(=O)[C@H](CO)c1ccccc1)C2` [Hyoscyamine], the “Max normalized Response” value worked out at 0.1005 in assay [1] (conc 0.137 uM); 0.08466 in assay [1] (conc 3.7 uM); 0.09524 in assay [1] (conc 11.1 uM); 0.1217 in assay [1] (conc 33.3 uM); 0.01058 in assay [1] (conc 100 uM).

ecgonine: the Response in assay [1] (conc 0.0137174 uM, ED Fig. 2b) is 0.052; in assay [1] (conc 0.123457 uM, ED Fig. 2b), 0.065; in assay [1] (conc 0.37037 uM, ED Fig. 2b), 0.073; in assay [1] (conc 1.11111 uM, ED Fig. 2b), 0.07; in assay [1] (conc 3.33333 uM, ED Fig. 2b), 0.053; in assay [1] (conc 10 uM, ED Fig. 2b), 0.084. For the same molecule, the Response in assay [1] (conc 30 uM, ED Fig. 2b) turned out to be 0.084. Also, in assay [1], the “activation of coca-5HT3” value is “not activated”.

For the molecule `COc1ccc2c3c1O[C@H]1C(=O)CC[C@@]4(O)[C@@H](C2)N(C)CC[C@]314` [oxycodone], the Response in assay [1] (conc 0.0137 uM, ED Fig. 2c) is 0.109; in assay [1] (conc 0.123 uM, ED Fig. 2c) it was 0.086; in assay [1] (conc 0.37 uM, ED Fig. 2c), 0.066; in assay [1] (conc 10 uM, ED Fig. 2c), 0.081; in assay [1] (conc 30 uM, ED Fig. 2c) it was 0.117. Besides, the “activation of coca-5HT3” value in assay [1] is “did not activate”.

For the molecule `CN1[C@H]2CC[C@@H]1[C@@H](C(=O)O)[C@@H](OC(=O)c1ccccc1)C2` [benzoyl ecgonine], the Response in assay [1] (conc 0.0137174 uM, ED Fig. 2b) worked out at 0.07; in assay [1] (conc 0.123457 uM, ED Fig. 2b), 0.088; in assay [1] (conc 0.37037 uM, ED Fig. 2b), 0.072; in assay [1] (conc 1.11111 uM, ED Fig. 2b), 0.062; in assay [1] (conc 3.33333 uM, ED Fig. 2b) it was 0.097; in assay [1] (conc 10 uM, ED Fig. 2b), 0.074. This molecule returned a Response in assay [1] (conc 30 uM, ED Fig. 2b) of 0.088. Moreover, in assay [1], the “activation of coca-5HT3” value is “not activated”.

Consider `NCC(=O)O` [Glycine], for which the Response was 0.223 in assay [1] (conc 0.457247 uM, ED Fig 3a); 0.03 in assay [1] (conc 1.37174 uM, ED Fig 3a); 0.032 in assay [1] (conc 12.3457 uM, ED Fig 3a); 0.042 in assay [1] (conc 37.037 uM, ED Fig 3a); 0.053 in assay [1] (conc 111.111 uM, ED Fig 3a); 0.108 in assay [1] (conc 333.333 uM, ED Fig 3a). Further, the Response in assay [1] (conc 1000 uM, ED Fig 3a) is 0.232.

For `C[N+]1(C)[C@@H]2C[C@@H](OC(=O)C(O)(c3cccs3)c3cccs3)C[C@H]1[C@@H]1O[C@@H]12` [Tiotropium], the “Max normalized Response” value is recorded as 0.05284 in assay [1] (conc 0.137 uM); 0.03225 in assay [1] (conc 3.7 uM); 0.04379 in assay [1] (conc 11.1 uM); 0.159 in assay [1] (conc 33.3 uM); 0.2432 in assay [1] (conc 100 uM).

As to `CN1[C@@H]2C[C@@H](OC(=O)[C@H](CO)c3ccccc3)C[C@H]1[C@@H]1O[C@@H]12` [Scopolamine], the “Max normalized Response” value came to 0.06195 in assay [1] (conc 0.137 uM); 0.06448 in assay [1] (conc 3.7 uM); 0.04953 in assay [1] (conc 11.1 uM); 0.06371 in assay [1] (conc 33.3 uM); 0.0598 in assay [1] (conc 100 uM).

As for `CN1CCC[C@H]1c1cccnc1` [nicotine], in assay [1], the “reduced potency for coca-5HT3 versus unmutated α7–5HT3” value is recorded as “greater than 300 fold”. For the same molecule, the “max response of each dose-response replicate” value in assay [1] (coca5HT3, Nicotine, used for normalization) was 0.477 and 0.607 and 0.383 and 0.555; at unmodified α7–5HT3 (a75HT3, Nicotine, used for normalization), 0.486 (2×) and 0.554 (2×) and 0.608 (2×). Further, the “Max normalized response, AVG” value in assay [1] (setting [2]) stood at 0.06271; in assay [1] (setting [3]), 0.05584; in assay [1] (setting [4]) it was 0.06127; in assay [1] (coca5HT3, [Nicotine] 37 uM), 0.1199; in assay [1] (coca5HT3, [Nicotine] 111 uM) it was 0.2452; in assay [1] (coca5HT3, [Nicotine] 333 uM), 0.4535. In addition, the “Max normalized response, AVG” value in assay [1] (coca5HT3, [Nicotine] 1000 uM) is recorded as 0.6843; in assay [1] (coca5HT3, [Nicotine] 3000 uM), 1; at unmodified α7–5HT3 (setting [5]), 0.008293; at unmodified α7–5HT3 (a75HT3, [Nicotine] 0.137174 uM), 0.001891; on unmodified α7–5HT3 (a75HT3, [Nicotine] 0.411523 uM), 0.009729; on unmodified α7–5HT3 (a75HT3, [Nicotine] 1.23457 uM) it was 0.08187. Besides, the “Max normalized response, AVG” value on unmodified α7–5HT3 (a75HT3, [Nicotine] 3.7037 uM) stood at 0.6699; at unmodified α7–5HT3 (a75HT3, [Nicotine] 11.1111 uM), 1; at unmodified α7–5HT3 (a75HT3, [Nicotine] 33.3333 uM), 0.8953; on unmodified α7–5HT3 (a75HT3, [Nicotine] 100 uM), 0.8025. Further, the “Max normalized response, replicates” value is 0.03243 and 0.1069 and 0.09061 and 0.02089 in assay [1] (setting [2]); 0.06667 and 0.05451 and 0.03954 and 0.06266 in assay [1] (setting [3]); 0.03964 and 0.07966 and 0.08402 and 0.04178 in assay [1] (setting [4]); 0.1225 and 0.1426 and 0.196 and 0.01828 in assay [1] (coca5HT3, [Nicotine] 37 uM); 0.3009 and 0.2537 and 0.374 and 0.05222 in assay [1] (coca5HT3, [Nicotine] 111 uM); 0.5495 and 0.5975 and 0.5157 and 0.1514 in assay [1] (coca5HT3, [Nicotine] 333 uM). The “Max normalized response, replicates” value in assay [1] (coca5HT3, [Nicotine] 1000 uM) is 0.8198 and 0.7044 and 0.7249 and 0.4883; in assay [1] (coca5HT3, [Nicotine] 3000 uM) it was 1; at unmodified α7–5HT3 (setting [5]) it was 0 (2×) and 0.02166 (2×) and 0.01151 (2×); on unmodified α7–5HT3 (a75HT3, [Nicotine] 0.137174 uM), 0.002058 (2×) and 0.001805 (2×) and 0.001645 (2×); on unmodified α7–5HT3 (a75HT3, [Nicotine] 0.411523 uM) it was 0.004115 (2×) and 0.03069 (2×) and 0 (2×); on unmodified α7–5HT3 (a75HT3, [Nicotine] 1.23457 uM), 0.1152 (2×) and 0 (2×) and 0.09704 (2×). For the same molecule, the “Max normalized response, replicates” value was 0.8354 (2×) and 0.4874 (2×) and 0.5214 (2×) on unmodified α7–5HT3 (a75HT3, [Nicotine] 3.7037 uM); 1 on unmodified α7–5HT3 (a75HT3, [Nicotine] 11.1111 uM); 0.8436 (2×) and 0.9711 (2×) and 0.9227 (2×) on unmodified α7–5HT3 (a75HT3, [Nicotine] 33.3333 uM); 0.9585 (2×) and 0.8503 (2×) and 0.5988 on unmodified α7–5HT3 (a75HT3, [Nicotine] 100 uM). Also, the “Response, dose-response replicates (DR 1-4)” value in assay [1] (setting [2]) is 0.051 and 0.055 and 0.008 and 0.018; in assay [1] (setting [3]) it was 0.026 and 0.024 (2×) and 0.037; in assay [1] (setting [4]), 0.038 and 0.051 and 0.016 and 0.022; in assay [1] (coca5HT3, [Nicotine] 37 uM), 0.068 (2×) and 0.119 and 0.007; in assay [1] (coca5HT3, [Nicotine] 111 uM), 0.121 and 0.227 and 0.02 and 0.167; in assay [1] (coca5HT3, [Nicotine] 333 uM), 0.285 and 0.313 and 0.058 and 0.305. Further, the “Response, dose-response replicates (DR 1-4)” value in assay [1] (coca5HT3, [Nicotine] 1000 uM) was 0.44 and 0.187 and 0.455; in assay [1] (coca5HT3, [Nicotine] 3000 uM), 0.477 and 0.607 and 0.383 and 0.555. Also, the Response came to 0.106 in assay [1] (conc 0.0137 uM, ED Fig. 2c); 0.216 in assay [1] (conc 0.123 uM, ED Fig. 2c); 0.045 in assay [1] (conc 0.37 uM, ED Fig. 2c); 0.163 in assay [1] (conc 10 uM, ED Fig. 2c); 0.238 in assay [1] (conc 30 uM, ED Fig. 2c). Also, at unmodified α7–5HT3, the “activity at unmutated α7–5HT3 chimeric channel” value was “agonist”. Also, the “Response, dose-response replicates (DR 1-6)” value is 0 (2×) and 0.012 (2×) and 0.007 (2×) on unmodified α7–5HT3 (setting [5]); 0.001 at unmodified α7–5HT3 (a75HT3, [Nicotine] 0.137174 uM); 0.002 (2×) and 0.017 (2×) and 0 (2×) at unmodified α7–5HT3 (a75HT3, [Nicotine] 0.411523 uM); 0.056 (2×) and 0 (2×) and 0.059 (2×) at unmodified α7–5HT3 (a75HT3, [Nicotine] 1.23457 uM); 0.406 (2×) and 0.27 (2×) and 0.317 (2×) at unmodified α7–5HT3 (a75HT3, [Nicotine] 3.7037 uM); 0.486 (2×) and 0.554 (2×) and 0.608 (2×) at unmodified α7–5HT3 (a75HT3, [Nicotine] 11.1111 uM). Further, the “Response, dose-response replicates (DR 1-6)” value was 0.41 (2×) and 0.538 (2×) and 0.561 (2×) at unmodified α7–5HT3 (a75HT3, [Nicotine] 33.3333 uM); 0.291 and 0.531 (2×) and 0.517 (2×) at unmodified α7–5HT3 (a75HT3, [Nicotine] 100 uM).

With `Nc1ncnc2c1ncn2[C@@H]1O[C@H](CO)[C@@H](O)[C@H]1O` [adenosine], the Response turned out to be 0.126 in assay [1] (conc 0.457247 uM, ED Fig 3a); 0.045 in assay [1] (conc 1.37174 uM, ED Fig 3a); 0.079 in assay [1] (conc 12.3457 uM, ED Fig 3a); 0.053 in assay [1] (conc 37.037 uM, ED Fig 3a).

`NCCc1c[nH]cn1` [Histamine]: the Response in assay [1] (conc 0.457247 uM, ED Fig 3a) worked out at 0.136; in assay [1] (conc 1.37174 uM, ED Fig 3a) it was 0.016; in assay [1] (conc 12.3457 uM, ED Fig 3a), 0.035; in assay [1] (conc 37.037 uM, ED Fig 3a) it was 0.028; in assay [1] (conc 111.111 uM, ED Fig 3a), 0.056; in assay [1] (conc 333.333 uM, ED Fig 3a), 0.051. In addition, the Response in assay [1] (conc 1000 uM, ED Fig 3a) is 0.086.

Consider `CC(=O)Oc1ccc2c3c1O[C@H]1[C@@H](OC(C)=O)C=C[C@H]4[C@@H](C2)N(C)CC[C@@]341` [heroin], for which the Response stood at 0.058 in assay [1] (conc 0.0137 uM, ED Fig. 2c); 0.046 in assay [1] (conc 0.123 uM, ED Fig. 2c); 0.054 in assay [1] (conc 0.37 uM, ED Fig. 2c); 0.109 in assay [1] (conc 10 uM, ED Fig. 2c); 0.105 in assay [1] (conc 30 uM, ED Fig. 2c). In addition, the “activation of coca-5HT3” value in assay [1] is given as “did not activate”.

`CC(C)[N+]1(C)[C@@H]2CC[C@H]1C[C@@H](OC(=O)C(CO)c1ccccc1)C2` (stereo partly drawn) [Ipatropium]: the “Max normalized Response” value stood at 0.03351 in assay [1] (conc 0.137 uM); 0.3358 in assay [1] (conc 3.7 uM); 0.05921 in assay [1] (conc 11.1 uM); 0.03979 in assay [1] (conc 33.3 uM); 0.03984 in assay [1] (conc 100 uM).
